Source: ChEMBL document CHEMBL5465560, “Selectivity Literature for EUbOPEN Chemogenomic Library” (2024)

Legend:
[1] = target: Muscarinic acetylcholine receptor M3 (Homo sapiens, UniProt P20309); test: Selectivity interaction (Eurofins Cerep-Panlabs Safety Screen 44 (GPCRS, Transporters, Ion Channels, Nuclear Receptors, other enzymes)) EUB0000878a CHRM3; settings: at 10 µM
[2] = target: Mitogen-activated protein kinase kinase kinase 11 (Homo sapiens) (UniProt Q16584); test: Selectivity interaction (KinomeScan (DiscoverX)) EUB0000878a MAP3K11; settings: at 1 µM
Mitogen-activated protein kinase kinase kinase 11 (Homo sapiens), sequence (Q16584 whole entry, looked up): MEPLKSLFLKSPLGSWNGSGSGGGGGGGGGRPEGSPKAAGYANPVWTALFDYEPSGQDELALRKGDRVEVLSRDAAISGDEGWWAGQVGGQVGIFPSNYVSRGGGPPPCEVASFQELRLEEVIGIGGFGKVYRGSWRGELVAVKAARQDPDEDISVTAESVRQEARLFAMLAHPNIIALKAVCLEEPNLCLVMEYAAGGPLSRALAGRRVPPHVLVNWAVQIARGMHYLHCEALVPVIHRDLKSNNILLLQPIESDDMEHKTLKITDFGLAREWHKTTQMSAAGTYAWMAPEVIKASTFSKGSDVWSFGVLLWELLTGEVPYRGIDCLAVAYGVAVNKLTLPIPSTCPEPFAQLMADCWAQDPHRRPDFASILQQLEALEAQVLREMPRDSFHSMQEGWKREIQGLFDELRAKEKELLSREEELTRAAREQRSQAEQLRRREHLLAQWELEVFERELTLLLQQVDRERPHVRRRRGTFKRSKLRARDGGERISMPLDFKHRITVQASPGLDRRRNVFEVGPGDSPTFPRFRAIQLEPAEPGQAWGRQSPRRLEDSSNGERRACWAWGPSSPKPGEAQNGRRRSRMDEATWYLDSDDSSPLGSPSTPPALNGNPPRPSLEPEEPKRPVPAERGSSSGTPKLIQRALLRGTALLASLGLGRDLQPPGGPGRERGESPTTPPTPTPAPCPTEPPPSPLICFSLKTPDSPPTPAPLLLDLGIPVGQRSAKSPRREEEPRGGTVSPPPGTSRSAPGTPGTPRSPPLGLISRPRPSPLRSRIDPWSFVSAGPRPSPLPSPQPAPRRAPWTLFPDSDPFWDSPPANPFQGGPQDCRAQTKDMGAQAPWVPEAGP

[3] = target: Sodium-dependent noradrenaline transporter (Homo sapiens, UniProt P23975); test: Selectivity interaction (Eurofins Cerep-Panlabs Safety Screen 44 (GPCRS, Transporters, Ion Channels, Nuclear Receptors, other enzymes)) EUB0000878a SLC6A2; settings: at 10 µM
Sodium-dependent noradrenaline transporter, sequence (P23975 whole entry): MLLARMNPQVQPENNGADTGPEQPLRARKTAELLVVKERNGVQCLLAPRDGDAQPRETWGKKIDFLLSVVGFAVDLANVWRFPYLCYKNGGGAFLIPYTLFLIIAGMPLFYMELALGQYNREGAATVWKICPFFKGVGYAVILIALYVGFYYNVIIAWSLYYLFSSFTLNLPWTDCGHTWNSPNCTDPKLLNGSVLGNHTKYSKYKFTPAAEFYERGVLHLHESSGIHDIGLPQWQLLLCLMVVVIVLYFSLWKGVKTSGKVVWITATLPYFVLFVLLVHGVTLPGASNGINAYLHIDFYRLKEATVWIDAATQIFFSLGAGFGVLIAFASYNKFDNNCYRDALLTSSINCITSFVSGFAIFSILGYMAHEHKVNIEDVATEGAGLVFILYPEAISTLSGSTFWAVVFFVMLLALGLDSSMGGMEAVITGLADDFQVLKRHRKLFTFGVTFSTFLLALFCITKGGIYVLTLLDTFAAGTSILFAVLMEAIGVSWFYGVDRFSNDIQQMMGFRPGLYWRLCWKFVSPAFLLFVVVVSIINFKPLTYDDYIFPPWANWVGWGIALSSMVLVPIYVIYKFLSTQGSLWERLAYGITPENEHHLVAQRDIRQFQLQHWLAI

[4] = target: Phosphatidylinositol 4-phosphate 5-kinase type-1 gamma (Homo sapiens) (UniProt O60331); test: Selectivity interaction (KinomeScan (DiscoverX)) EUB0000878a PIP5K1C; settings: at 1 µM
Phosphatidylinositol 4-phosphate 5-kinase type-1 gamma (Homo sapiens), sequence (O60331 whole entry): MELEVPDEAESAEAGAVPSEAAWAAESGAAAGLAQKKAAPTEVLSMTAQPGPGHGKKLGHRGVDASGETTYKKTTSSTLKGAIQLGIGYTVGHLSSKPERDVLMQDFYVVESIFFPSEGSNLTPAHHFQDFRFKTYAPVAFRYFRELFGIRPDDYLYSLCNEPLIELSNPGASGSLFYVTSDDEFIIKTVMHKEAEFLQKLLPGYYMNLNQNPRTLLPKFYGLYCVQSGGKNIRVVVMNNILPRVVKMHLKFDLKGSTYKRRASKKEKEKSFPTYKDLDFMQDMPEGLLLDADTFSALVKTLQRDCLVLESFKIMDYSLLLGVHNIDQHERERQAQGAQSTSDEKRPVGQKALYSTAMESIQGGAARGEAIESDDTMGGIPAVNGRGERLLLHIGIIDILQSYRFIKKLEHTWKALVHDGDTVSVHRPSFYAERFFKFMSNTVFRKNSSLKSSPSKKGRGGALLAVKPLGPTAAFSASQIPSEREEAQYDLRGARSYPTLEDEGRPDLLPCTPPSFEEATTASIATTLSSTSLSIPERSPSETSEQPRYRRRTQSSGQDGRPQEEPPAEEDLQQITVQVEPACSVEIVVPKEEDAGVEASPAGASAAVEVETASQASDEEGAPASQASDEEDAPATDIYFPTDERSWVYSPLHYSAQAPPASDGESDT

[5] = target: T1, Muscarinic acetylcholine receptor M2 (Homo sapiens) (UniProt P08172); test: Selectivity interaction (Eurofins Cerep-Panlabs Safety Screen 44 (GPCRS, Transporters, Ion Channels, Nuclear Receptors, other enzymes)) EUB0000878a CHRM2; settings: at 10 µM
T1 sequence (whole entry): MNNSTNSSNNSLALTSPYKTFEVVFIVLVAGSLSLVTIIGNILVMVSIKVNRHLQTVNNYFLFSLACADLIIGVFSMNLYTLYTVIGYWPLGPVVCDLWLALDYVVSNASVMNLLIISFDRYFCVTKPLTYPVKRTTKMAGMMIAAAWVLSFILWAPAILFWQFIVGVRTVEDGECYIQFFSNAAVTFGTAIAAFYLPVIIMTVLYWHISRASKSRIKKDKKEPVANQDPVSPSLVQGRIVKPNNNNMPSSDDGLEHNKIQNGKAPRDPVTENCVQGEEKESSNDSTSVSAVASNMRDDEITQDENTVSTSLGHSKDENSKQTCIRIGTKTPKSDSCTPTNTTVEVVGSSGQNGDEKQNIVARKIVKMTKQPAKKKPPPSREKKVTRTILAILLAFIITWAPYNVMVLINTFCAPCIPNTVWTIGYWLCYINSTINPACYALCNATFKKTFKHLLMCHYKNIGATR

[6] = target: T2, Dual specificity mitogen-activated protein kinase kinase 5 (Homo sapiens) (UniProt Q13163); test: Selectivity interaction (KinomeScan (DiscoverX)) EUB0000878a MAP2K5; settings: at 1 µM
T2 sequence (whole entry): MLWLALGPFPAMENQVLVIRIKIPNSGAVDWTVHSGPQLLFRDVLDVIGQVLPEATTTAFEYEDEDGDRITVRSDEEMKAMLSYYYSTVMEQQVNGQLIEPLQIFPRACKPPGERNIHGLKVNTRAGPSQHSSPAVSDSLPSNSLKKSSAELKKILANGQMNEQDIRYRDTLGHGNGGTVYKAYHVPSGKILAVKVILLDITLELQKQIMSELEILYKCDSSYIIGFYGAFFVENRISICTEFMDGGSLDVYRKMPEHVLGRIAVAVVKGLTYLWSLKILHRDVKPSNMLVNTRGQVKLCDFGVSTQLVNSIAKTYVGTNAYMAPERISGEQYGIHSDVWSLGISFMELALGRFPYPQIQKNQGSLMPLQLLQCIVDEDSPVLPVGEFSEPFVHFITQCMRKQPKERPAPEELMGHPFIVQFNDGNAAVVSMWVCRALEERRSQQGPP

[7] = target: T3, Muscarinic acetylcholine receptor M1 (Homo sapiens) (UniProt P11229); test: Selectivity interaction (Eurofins Cerep-Panlabs Safety Screen 44 (GPCRS, Transporters, Ion Channels, Nuclear Receptors, other enzymes)) EUB0000878a CHRM1; settings: at 10 µM
T3 sequence (whole entry): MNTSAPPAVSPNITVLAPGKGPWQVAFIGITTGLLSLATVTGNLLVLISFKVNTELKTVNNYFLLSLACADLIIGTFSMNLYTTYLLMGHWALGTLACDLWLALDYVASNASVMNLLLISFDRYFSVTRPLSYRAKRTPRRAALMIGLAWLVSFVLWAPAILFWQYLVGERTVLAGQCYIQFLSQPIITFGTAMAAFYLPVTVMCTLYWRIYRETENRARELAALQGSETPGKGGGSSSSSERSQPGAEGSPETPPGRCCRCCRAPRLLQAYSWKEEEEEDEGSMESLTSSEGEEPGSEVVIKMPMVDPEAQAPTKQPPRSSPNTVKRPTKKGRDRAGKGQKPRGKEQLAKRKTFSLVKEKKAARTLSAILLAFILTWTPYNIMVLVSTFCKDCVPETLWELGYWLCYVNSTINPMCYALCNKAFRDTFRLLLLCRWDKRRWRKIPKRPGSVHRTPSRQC

[8] = target: T4, Receptor-interacting serine/threonine-protein kinase 4 (Homo sapiens) (UniProt P57078); test: Selectivity interaction (KinomeScan (DiscoverX)) EUB0000878a RIPK4; settings: at 1 µM
T4 sequence (whole entry): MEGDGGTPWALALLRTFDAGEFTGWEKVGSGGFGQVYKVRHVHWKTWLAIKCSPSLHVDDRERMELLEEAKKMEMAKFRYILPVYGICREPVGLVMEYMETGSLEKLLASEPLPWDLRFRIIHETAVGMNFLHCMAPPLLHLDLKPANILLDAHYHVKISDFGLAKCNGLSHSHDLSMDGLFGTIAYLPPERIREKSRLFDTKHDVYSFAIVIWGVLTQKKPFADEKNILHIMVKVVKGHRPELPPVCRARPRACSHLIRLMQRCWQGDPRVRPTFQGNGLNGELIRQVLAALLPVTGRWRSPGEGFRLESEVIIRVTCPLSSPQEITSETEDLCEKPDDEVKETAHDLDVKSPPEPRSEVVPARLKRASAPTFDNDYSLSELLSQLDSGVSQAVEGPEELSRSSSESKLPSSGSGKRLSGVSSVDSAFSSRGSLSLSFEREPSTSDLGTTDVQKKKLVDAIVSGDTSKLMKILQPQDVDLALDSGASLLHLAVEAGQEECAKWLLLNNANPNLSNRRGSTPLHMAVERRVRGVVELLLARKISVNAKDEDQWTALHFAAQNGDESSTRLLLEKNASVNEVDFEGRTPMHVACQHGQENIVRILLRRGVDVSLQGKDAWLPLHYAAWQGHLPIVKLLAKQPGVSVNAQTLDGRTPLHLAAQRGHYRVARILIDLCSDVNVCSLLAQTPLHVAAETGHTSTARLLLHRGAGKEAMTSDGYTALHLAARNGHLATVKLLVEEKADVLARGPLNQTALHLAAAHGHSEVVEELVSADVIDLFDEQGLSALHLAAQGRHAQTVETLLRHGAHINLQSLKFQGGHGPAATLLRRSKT

[9] = target: Sodium-dependent dopamine transporter (Homo sapiens, UniProt Q01959); test: Selectivity interaction (Eurofins Cerep-Panlabs Safety Screen 44 (GPCRS, Transporters, Ion Channels, Nuclear Receptors, other enzymes)) EUB0000878a SLC6A3; settings: at 10 µM
[10] = test system: Mast/stem cell growth factor receptor Kit (Homo sapiens), P10721 [UNDEFINED MUTATION]; test: Selectivity interaction (KinomeScan (DiscoverX)) EUB0001066a KIT; settings: at 1 µM
Mast/stem cell growth factor receptor Kit (Homo sapiens), P10721 [UNDEFINED MUTATION], sequence (P10721 whole entry, looked up, change not shown): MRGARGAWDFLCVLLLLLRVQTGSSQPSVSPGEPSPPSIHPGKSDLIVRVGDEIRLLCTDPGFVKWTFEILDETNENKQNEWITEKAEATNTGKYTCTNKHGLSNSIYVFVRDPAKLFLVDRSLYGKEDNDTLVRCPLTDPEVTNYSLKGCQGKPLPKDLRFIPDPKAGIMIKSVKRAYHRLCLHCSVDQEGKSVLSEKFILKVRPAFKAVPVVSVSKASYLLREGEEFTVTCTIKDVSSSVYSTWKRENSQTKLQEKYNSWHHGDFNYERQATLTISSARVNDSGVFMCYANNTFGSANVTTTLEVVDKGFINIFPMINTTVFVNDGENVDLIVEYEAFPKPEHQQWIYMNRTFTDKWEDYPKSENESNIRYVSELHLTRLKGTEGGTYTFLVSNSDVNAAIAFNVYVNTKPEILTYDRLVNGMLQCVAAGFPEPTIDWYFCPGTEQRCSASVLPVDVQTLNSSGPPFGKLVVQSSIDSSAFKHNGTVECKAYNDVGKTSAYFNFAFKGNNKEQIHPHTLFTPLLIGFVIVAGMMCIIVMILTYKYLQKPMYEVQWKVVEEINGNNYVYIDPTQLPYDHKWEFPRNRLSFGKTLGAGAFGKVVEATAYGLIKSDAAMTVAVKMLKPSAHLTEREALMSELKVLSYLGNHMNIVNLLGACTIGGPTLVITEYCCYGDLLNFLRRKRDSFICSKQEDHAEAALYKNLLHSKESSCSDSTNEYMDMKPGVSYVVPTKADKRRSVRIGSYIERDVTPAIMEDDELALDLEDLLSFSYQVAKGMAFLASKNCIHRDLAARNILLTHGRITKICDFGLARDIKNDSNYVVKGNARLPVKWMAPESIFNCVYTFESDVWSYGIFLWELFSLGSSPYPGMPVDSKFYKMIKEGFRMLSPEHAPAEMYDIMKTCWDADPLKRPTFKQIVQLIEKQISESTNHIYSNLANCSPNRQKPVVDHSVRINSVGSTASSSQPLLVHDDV

[11] = target: Serine/threonine-protein kinase VRK2 (Homo sapiens) (UniProt Q86Y07); test: Selectivity interaction (KinomeScan (DiscoverX)) EUB0001066a VRK2; settings: at 1 µM
Serine/threonine-protein kinase VRK2 (Homo sapiens), sequence (Q86Y07 whole entry): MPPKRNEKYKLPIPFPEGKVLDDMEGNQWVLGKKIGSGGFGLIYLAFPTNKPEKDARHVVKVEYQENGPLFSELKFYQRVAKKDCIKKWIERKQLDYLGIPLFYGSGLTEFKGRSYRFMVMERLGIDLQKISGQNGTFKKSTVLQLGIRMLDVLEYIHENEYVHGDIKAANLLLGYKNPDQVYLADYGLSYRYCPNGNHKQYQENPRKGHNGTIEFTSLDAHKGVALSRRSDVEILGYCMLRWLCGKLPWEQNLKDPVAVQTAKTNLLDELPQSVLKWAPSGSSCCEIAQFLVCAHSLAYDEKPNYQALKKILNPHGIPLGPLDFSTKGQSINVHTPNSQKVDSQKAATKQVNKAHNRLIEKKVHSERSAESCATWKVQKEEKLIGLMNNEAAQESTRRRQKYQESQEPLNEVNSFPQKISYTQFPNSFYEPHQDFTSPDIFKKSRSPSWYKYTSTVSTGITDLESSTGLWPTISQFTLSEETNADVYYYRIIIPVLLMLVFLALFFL

[12] = target: T5, Serine/threonine-protein kinase NLK (Homo sapiens) (UniProt Q9UBE8); test: Selectivity interaction (KinomeScan (DiscoverX)) EUB0001066a NLK; settings: at 1 µM
T5 sequence (whole entry): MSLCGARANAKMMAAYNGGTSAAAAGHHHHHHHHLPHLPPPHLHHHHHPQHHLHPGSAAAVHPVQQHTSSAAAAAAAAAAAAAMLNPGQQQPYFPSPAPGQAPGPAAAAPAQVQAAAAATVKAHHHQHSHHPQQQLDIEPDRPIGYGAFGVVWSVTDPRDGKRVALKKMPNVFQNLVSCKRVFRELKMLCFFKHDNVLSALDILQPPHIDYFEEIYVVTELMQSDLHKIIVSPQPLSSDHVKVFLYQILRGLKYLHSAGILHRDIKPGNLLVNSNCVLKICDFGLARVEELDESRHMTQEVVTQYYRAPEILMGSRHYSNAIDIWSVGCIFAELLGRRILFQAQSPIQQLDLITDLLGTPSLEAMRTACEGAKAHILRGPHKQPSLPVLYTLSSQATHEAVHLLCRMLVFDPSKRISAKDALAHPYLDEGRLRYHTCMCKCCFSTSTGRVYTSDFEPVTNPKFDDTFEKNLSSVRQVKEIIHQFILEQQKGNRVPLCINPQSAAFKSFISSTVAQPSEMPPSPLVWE

[13] = target: T6, Alpha-1B adrenergic receptor (Homo sapiens) (UniProt P35368); test: Selectivity interaction (GPCR panel (PDSP screen)) EUB0001066a ADRA1B; settings: at 10 µM
T6 sequence (whole entry): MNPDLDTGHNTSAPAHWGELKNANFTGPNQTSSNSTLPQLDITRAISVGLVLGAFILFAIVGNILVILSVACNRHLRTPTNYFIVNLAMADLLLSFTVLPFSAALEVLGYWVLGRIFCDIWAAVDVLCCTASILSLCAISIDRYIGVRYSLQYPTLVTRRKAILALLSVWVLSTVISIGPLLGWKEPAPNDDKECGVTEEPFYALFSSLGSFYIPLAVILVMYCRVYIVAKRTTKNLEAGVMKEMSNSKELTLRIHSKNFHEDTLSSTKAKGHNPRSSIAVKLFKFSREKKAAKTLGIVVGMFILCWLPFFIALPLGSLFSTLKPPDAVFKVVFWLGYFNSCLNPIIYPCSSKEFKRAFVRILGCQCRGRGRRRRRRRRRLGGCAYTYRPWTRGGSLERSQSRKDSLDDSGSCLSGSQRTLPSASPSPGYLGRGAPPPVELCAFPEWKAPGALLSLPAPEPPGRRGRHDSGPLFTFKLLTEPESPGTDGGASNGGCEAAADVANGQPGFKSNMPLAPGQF

[14] = target: Serine/threonine-protein kinase pim-2 (Homo sapiens, UniProt Q9P1W9); test: Selectivity interaction (KinomeScan (DiscoverX)) EUB0001066a PIM2; settings: at 1 µM
Serine/threonine-protein kinase pim-2, sequence (Q9P1W9 whole entry, looked up): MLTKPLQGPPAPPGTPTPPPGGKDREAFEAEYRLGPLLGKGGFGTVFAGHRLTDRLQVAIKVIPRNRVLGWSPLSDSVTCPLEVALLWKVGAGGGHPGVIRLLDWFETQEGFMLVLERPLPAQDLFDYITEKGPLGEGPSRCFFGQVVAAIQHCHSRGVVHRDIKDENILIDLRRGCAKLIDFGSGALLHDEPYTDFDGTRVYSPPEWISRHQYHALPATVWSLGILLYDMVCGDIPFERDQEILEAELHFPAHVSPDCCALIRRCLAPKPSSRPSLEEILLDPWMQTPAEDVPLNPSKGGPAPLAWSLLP

[15] = target: T7, 5-hydroxytryptamine receptor 2C (Homo sapiens) (UniProt P28335); test: Selectivity interaction (GPCR panel (PDSP screen)) EUB0001066a HTR2C; settings: at 10 µM
T7 sequence (whole entry): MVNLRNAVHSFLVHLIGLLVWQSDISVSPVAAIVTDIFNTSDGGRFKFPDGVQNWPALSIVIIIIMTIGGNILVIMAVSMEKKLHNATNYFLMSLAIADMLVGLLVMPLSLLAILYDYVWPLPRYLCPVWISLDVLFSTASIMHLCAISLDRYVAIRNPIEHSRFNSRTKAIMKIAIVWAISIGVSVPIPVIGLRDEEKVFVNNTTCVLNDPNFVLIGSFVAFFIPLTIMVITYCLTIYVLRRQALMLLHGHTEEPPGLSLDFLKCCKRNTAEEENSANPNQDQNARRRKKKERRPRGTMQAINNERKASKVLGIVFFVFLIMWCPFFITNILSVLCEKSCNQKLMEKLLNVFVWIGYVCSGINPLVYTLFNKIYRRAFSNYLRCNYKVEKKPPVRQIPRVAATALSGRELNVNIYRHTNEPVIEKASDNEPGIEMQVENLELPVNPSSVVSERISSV

[16] = target: 5-hydroxytryptamine receptor 1E (Homo sapiens) (UniProt P28566); test: Selectivity interaction (GPCR panel (PDSP screen)) EUB0001066a HTR1E; settings: at 10 µM
5-hydroxytryptamine receptor 1E (Homo sapiens), sequence (P28566 whole entry): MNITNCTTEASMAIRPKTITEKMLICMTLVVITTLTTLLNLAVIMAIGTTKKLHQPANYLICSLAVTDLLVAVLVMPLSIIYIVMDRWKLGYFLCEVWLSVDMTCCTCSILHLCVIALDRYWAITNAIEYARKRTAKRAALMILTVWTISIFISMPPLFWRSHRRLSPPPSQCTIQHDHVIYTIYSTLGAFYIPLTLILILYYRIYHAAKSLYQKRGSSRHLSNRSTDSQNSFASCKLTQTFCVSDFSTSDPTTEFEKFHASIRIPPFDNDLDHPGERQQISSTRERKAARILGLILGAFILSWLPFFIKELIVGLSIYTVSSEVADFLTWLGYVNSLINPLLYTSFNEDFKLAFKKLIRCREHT

Muscarinic acetylcholine receptor M3, sequence (P20309 whole entry, looked up): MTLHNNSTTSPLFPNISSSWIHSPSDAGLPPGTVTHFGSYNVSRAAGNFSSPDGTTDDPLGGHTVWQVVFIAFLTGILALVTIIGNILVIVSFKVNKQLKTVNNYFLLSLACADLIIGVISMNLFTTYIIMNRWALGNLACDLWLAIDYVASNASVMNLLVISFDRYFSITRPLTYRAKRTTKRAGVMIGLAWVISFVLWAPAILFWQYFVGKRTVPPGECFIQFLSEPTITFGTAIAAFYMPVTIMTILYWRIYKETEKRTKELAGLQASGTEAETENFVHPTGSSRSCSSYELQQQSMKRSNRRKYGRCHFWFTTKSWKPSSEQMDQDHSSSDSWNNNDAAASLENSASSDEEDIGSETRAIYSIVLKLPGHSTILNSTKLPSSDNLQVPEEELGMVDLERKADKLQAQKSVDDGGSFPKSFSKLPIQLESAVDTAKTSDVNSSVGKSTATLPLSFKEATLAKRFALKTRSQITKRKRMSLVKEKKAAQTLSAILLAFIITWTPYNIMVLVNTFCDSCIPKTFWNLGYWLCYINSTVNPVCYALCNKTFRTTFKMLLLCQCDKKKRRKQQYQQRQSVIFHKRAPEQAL

Row | Compound | % of inhibition or stimulation [1] [%] | % of control [2] [%] | % of inhibition or stimulation [3] [%] | % of control [4] [%] | % of inhibition or stimulation [5] [%] | % of control [6] [%] | % of inhibition or stimulation [7] [%] | % of control [8] [%] | % of inhibition or stimulation [9] [%] | % of control [10] [%] | % of control [11] [%] | % of control [12] [%] | % of inhibition [13] [%] | % of control [14] [%] | % of inhibition [15] [%] | % of inhibition [16] [%]
1 | CC(C)c1cc(Nc2nc(N3CCC[C@H](N)C3)ncc2C(N)=O)cc(C(C)C)n1 | 84 | 99 | 87 | 0 | 70 | 4.5 | 84 | 0.95 | 100 | – | – | – | – | – | – | –
2 | Cc1nccc(COC(=O)N2C[C@@H]3[C@@H](CNC(=O)c4ccc5[nH]nnc5c4)[C@@H]3C2)n1 | – | – | – | – | – | – | – | – | – | 41 | 29 | 41 | 30.2 | 0 | 31.1 | 31.8
